Laboratory results: ChEMBL document CHEMBL4364293, “Design, Synthesis, and Structure-Activity Relationship of 7-Propanamide Benzoxaboroles as Potent Anticancer Agents” (J Med Chem, 2019)
Each block holds one compound with its values, some of them ahead of it. Active and inactive are the calls of the source. No cut-off for these calls is given here.

Experiments:
[1] = Selectivity ratio, ratio of IC50 for human WI38 cells to IC50 for human SKOV3 cells; assay type: toxicity; conditions: WI38 cells versus SKOV3 cells, read-out: Ratio IC50
SK-OV-3 [2] = assay: Antiproliferative activity against human SKOV3 cells after 72 hrs by MTT assay; assay type: functional, cell-based; conditions: SK-OV-3, 72 h
WI-38 = assay: Cytotoxicity against human WI38 cells after 72 hrs by MTT assay; assay type: cell-based; conditions: WI-38, 72 h
HCT-116 = assay: Antiproliferative activity against human HCT116 cells after 72 hrs by MTT assay; assay type: functional, cell-based; conditions: HCT-116, 72 h
MDA-MB-231 = assay: Antiproliferative activity against human MDA-MB-231 cells after 72 hrs by MTT assay; assay type: functional, cell-based; conditions: MDA-MB-231, 72 h
SW480 [3] = assay: Antitumor activity against human SW480 cells xenografted in ip dosed BALB/c mouse assessed as reduction in tumor volume administered once daily for 33 days and measured every 3 days during compound dosing; assay type: functional, organism-based
[4] = target: Leucine--tRNA ligase, cytoplasmic (Homo sapiens) (UniProt Q9P2J5); assay: Inhibition of human leucyl-tRNA synthetase
Leucine--tRNA ligase, cytoplasmic (Homo sapiens), sequence (Q9P2J5 whole entry, looked up): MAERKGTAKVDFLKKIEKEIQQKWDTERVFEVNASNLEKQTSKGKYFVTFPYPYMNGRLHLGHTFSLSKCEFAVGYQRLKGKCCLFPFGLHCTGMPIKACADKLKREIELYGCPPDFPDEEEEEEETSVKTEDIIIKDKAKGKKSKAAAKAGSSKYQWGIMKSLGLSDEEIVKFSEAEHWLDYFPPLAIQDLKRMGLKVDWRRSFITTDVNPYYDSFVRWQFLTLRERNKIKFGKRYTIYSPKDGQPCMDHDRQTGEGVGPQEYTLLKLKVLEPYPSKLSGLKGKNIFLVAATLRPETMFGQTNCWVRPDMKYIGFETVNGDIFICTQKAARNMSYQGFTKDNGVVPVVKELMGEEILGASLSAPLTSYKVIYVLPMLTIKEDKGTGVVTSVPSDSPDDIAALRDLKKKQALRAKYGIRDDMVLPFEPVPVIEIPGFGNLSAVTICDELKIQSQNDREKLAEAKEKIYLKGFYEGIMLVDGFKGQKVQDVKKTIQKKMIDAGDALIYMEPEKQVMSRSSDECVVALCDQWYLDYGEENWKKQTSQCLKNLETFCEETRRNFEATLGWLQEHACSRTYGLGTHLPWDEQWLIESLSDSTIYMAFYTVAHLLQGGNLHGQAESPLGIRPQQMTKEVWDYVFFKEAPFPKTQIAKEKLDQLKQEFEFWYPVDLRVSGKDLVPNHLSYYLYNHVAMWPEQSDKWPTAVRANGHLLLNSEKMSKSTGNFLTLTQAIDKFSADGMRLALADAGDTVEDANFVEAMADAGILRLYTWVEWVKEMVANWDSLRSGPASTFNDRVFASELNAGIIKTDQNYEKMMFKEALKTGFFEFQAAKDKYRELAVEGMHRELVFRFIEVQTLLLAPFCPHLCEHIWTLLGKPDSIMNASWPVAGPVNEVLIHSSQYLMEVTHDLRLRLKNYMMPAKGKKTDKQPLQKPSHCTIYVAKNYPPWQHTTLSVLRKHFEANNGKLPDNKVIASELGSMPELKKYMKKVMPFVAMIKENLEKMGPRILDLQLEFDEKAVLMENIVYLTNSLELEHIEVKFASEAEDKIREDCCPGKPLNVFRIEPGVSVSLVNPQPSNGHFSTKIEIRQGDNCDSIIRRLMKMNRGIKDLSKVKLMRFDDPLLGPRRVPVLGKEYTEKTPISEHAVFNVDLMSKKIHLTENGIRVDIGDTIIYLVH

[5] = Clearance in Sprague-Dawley rat at 2 mg/kg, iv by non-compartmental analysis; assay type: ADME, organism-based; conditions: in vivo
[6] = Half-life in Sprague-Dawley rat at 10 mg/kg, po by non-compartmental analysis; assay type: ADME, organism-based; conditions: in vivo
[7] = Volume of distribution at steady state in Sprague-Dawley rat at 2 mg/kg, iv by non-compartmental analysis; assay type: ADME, organism-based; conditions: in vivo, read-out: Vdss
[8] = AUC infinity in Sprague-Dawley rat at 10 mg/kg, po by non-compartmental analysis; assay type: ADME, organism-based; set-up: dose 10 mg/kg, time infinity, route oral; conditions: in vivo
[9] = Cmax in Sprague-Dawley rat at 10 mg/kg, po by non-compartmental analysis; assay type: ADME, organism-based; set-up: dose 10 mg/kg, route oral; conditions: in vivo
[10] = Efflux ratio of apparent permeability from basolateral to apical over apical to basolateral side in human Caco2 cells; assay type: ADME, cell-based; conditions: Caco-2
SW480 [11] = assay: Antitumor activity against human SW480 cells xenografted in ip dosed BALB/c mouse assessed as reduction in tumor weight administered once daily for 33 days and measured every 3 days during compound dosing; assay type: functional, organism-based
[12] = AUC infinity in Sprague-Dawley rat at 2 mg/kg, iv by non-compartmental analysis; assay type: ADME, organism-based; set-up: dose 2 mg/kg, time infinity, route intravenous; conditions: in vivo
[13] = Toxicity in BALB/c mouse xenografted with human SW480 cells assessed as reduction in body weight at 2 to 10 mg/kg, ip administered once daily for 33 days and measured every 3 days during compound dosing; assay type: organism-based; conditions: in vivo
[14] = Half-life in Sprague-Dawley rat at 2 mg/kg, iv by non-compartmental analysis; assay type: ADME, organism-based; conditions: in vivo
[15] = Apparent permeability across apical to basolateral side in human Caco2 cells; assay type: ADME, cell-based; conditions: Caco-2
[16] = Tmax in Sprague-Dawley rat at 10 mg/kg, po by non-compartmental analysis; assay type: ADME, organism-based; conditions: in vivo
[17] = Apparent permeability across basolateral to apical side in human Caco2 cells; assay type: ADME, cell-based; conditions: Caco-2
[18] = Oral bioavailability in Sprague-Dawley rat at 10 mg/kg by non-compartmental analysis; assay type: ADME, organism-based; conditions: in vivo
SK-OV-3 [19] = assay: Induction of apoptosis in human SKOV3 cells assessed as necrotic cells at 10 uM after 48 hrs by Annexin V-FITC/propidium iodide staining based FACS analysis (reference value: 1.06%); assay type: functional
SK-OV-3 [20] = assay: Induction of apoptosis in human SKOV3 cells assessed as viable cells at 3 uM after 48 hrs by Annexin V-FITC/propidium iodide staining based FACS analysis (reference value: 91%); assay type: functional; conditions: SK-OV-3, 48 h, read-out: Activity
SK-OV-3 [21] = assay: Induction of apoptosis in human SKOV3 cells assessed as late apoptotic cells at 10 uM after 48 hrs by Annexin V-FITC/propidium iodide staining based FACS analysis (reference value: 5.97%); assay type: functional
SK-OV-3 [22] = assay: Induction of apoptosis in human SKOV3 cells assessed as viable cells at 1 uM after 48 hrs by Annexin V-FITC/propidium iodide staining based FACS analysis (reference value: 91%); assay type: functional; conditions: SK-OV-3, 48 h, read-out: Activity
SK-OV-3 [23] = assay: Induction of apoptosis in human SKOV3 cells assessed as early apoptotic cells at 1 uM after 48 hrs by Annexin V-FITC/propidium iodide staining based FACS analysis (reference value: 1.95%); assay type: functional
SK-OV-3 [24] = assay: Induction of apoptosis in human SKOV3 cells assessed as late apoptotic cells at 1 uM after 48 hrs by Annexin V-FITC/propidium iodide staining based FACS analysis (reference value: 5.97%); assay type: functional
SK-OV-3 [25] = assay: Induction of apoptosis in human SKOV3 cells assessed as viable cells at 10 uM after 48 hrs by Annexin V-FITC/propidium iodide staining based FACS analysis (reference value: 91%); assay type: functional; conditions: SK-OV-3, 48 h, read-out: Activity
SK-OV-3 [26] = assay: Induction of apoptosis in human SKOV3 cells assessed as early apoptotic cells at 3 uM after 48 hrs by Annexin V-FITC/propidium iodide staining based FACS analysis (reference value: 1.95%); assay type: functional
SK-OV-3 [27] = assay: Induction of apoptosis in human SKOV3 cells after 48 hrs by Annexin V-FITC/propidium iodide staining based FACS analysis (reference value: 1.06%); assay type: functional, cell-based
SK-OV-3 [28] = assay: Induction of apoptosis in human SKOV3 cells assessed as necrotic cells at 3 uM after 48 hrs by Annexin V-FITC/propidium iodide staining based FACS analysis (reference value: 1.06%); assay type: functional
NCI-H460 [29] = assay: Induction of apoptosis in human NCI-H460 cells assessed as increase in cleaved caspase-9 expression at low concentration after 48 hrs by Western blot analysis; assay type: functional, cell-based
SK-OV-3 [30] = assay: Induction of apoptosis in human SKOV3 cells assessed as early apoptotic cells at 10 uM after 48 hrs by Annexin V-FITC/propidium iodide staining based FACS analysis (reference value: 1.95%); assay type: functional
SK-OV-3 [31] = assay: Induction of apoptosis in human SKOV3 cells assessed as necrotic cells at 1 uM after 48 hrs by Annexin V-FITC/propidium iodide staining based FACS analysis (reference value: 1.06%); assay type: functional
NCI-H460 [32] = assay: Induction of apoptosis in human NCI-H460 cells assessed as increase in cleaved caspase-3 expression at low concentration after 48 hrs by Western blot analysis; assay type: functional, cell-based
SK-OV-3 [33] = assay: Induction of apoptosis in human SKOV3 cells assessed as late apoptotic cells at 3 uM after 48 hrs by Annexin V-FITC/propidium iodide staining based FACS analysis (reference value: 5.97%); assay type: functional
SK-OV-3 [34] = assay: Inhibition of colony formation in human SKOV3 cells at 0.0625 to 1 uM supplemented with fresh medium containing compound every 72 hrs for 2 weeks by crystal violet staining based assay; assay type: functional, cell-based
NCI-H460 [35] = assay: Induction of apoptosis in human NCI-H460 cells assessed as increase in cleaved PARP expression at low concentration after 48 hrs by Western blot analysis; assay type: functional, cell-based

Compound: O=C(CCc1cccc2c1B(O)OC2)Nc1cccc(-c2ccc(F)cc2)c1
selectivity ratio [1]: 44 | IC50 (SK-OV-3 [2]): 93 nM | IC50 (WI-38): 4100 nM | IC50 (HCT-116): 550 nM | IC50 (MDA-MB-231): 250 nM

Compound: CC(=O)c1ccc(-c2cccc(NC(=O)CCc3cccc4c3B(O)OC4)c2)cc1
Activity (SW480 [3]): Dose-dependent effect | inhibition [4]: inactive | clearance [5]: 17.5 mL/min/kg | half-life [6]: 2 h | selectivity ratio [1]: 180 | Vd [7]: 0.882 L/kg | AUC(0-inf) [8]: 459 ng·h/mL | Cmax [9]: 373 ng/mL | efflux ratio [10]: 0.56 | Activity (SW480 [11]): Dose-dependent effect | AUC(0-inf) [12]: 1920 ng·h/mL | Activity [13]: Non-Toxic | half-life [14]: 0.6 h | Papp A→B [15]: 3.95 ×10⁻⁶ cm/s | IC50 (SK-OV-3 [2]): 21 nM | IC50 (WI-38): 3700 nM | IC50 (HCT-116): 110 nM | Tmax [16]: 0.25 h | Papp B→A [17]: 2.23 ×10⁻⁶ cm/s | IC50 (MDA-MB-231): 56 nM | bioavailability [18]: 4.6%

Compound: COc1cccc(-c2cccc(NC(=O)CCc3cccc4c3B(O)OC4)c2)c1
Activity (SW480 [3]): Dose-dependent effect | Activity (SK-OV-3 [19]): 0.505% | inhibition [4]: inactive | viability at 3 µM (SK-OV-3 [20]): 67.8% | Activity (SK-OV-3 [21]): 30.7% | clearance [5]: 62.5 mL/min/kg | viability at 1 µM (SK-OV-3 [22]): 71% | half-life [6]: 2.2 h | Activity (SK-OV-3 [23]): 12.8% | selectivity ratio [1]: 100 | Vd [7]: 7.63 L/kg | Activity (SK-OV-3 [24]): 15.4% | viability at 10 µM (SK-OV-3 [25]): 48.1% | AUC(0-inf) [8]: 547 ng·h/mL | Activity (SK-OV-3 [26]): 14.5% | Cmax [9]: 434 ng/mL | efflux ratio [10]: 1.36 | Activity (SK-OV-3 [27]): Dose-dependent effect | Activity (SW480 [11]): Dose-dependent effect | AUC(0-inf) [12]: 551 ng·h/mL | Activity [13]: Non-Toxic | half-life [14]: 1.4 h | Activity (SK-OV-3 [28]): 0.593% | Activity (NCI-H460 [29]): Active | Activity (SK-OV-3 [30]): 20.6% | Papp A→B [15]: 19.5 ×10⁻⁶ cm/s | Activity (SK-OV-3 [31]): 0.808% | IC50 (SK-OV-3 [2]): 33 nM | Activity (NCI-H460 [32]): Active | IC50 (WI-38): 3200 nM | IC50 (HCT-116): 260 nM | Tmax [16]: 0.2 h | Papp B→A [17]: 26.5 ×10⁻⁶ cm/s | Activity (SK-OV-3 [33]): 17.1% | inhibition (SK-OV-3 [34]): Active | Activity (NCI-H460 [35]): Active | IC50 (MDA-MB-231): 37 nM | bioavailability [18]: 19.5%

Compound: COc1cccc2c1C(=O)c1c(O)c3c(c(O)c1C2=O)C[C@@](O)(C(=O)CO)C[C@@H]3O[C@H]1C[C@H](N)[C@H](O)[C@H](C)O1 [DOXORUBICIN]
IC50 (SK-OV-3 [2]): 32 nM | IC50 (WI-38): 590 nM | IC50 (HCT-116): 23 nM | IC50 (MDA-MB-231): 6.9 nM

Compound: COc1cc(OC)cc(-c2cccc(NC(=O)CCc3ccc4c(c3)B(O)OC4)c2)c1
IC50 (SK-OV-3 [2]): 29000 nM | IC50 (WI-38): > 100000 nM | IC50 (HCT-116): 3700 nM | IC50 (MDA-MB-231): 21000 nM

Compound: O=C(/C=C/c1cccc2c1B(O)OC2)Nc1ccccc1
IC50 (SK-OV-3 [2]): > 100000 nM | IC50 (WI-38): > 100000 nM | IC50 (HCT-116): > 100000 nM | IC50 (MDA-MB-231): > 100000 nM

Compound: C#Cc1cccc(NC(=O)CCc2cccc3c2B(O)OC3)c1
IC50 (SK-OV-3 [2]): 980 nM | IC50 (WI-38): > 100000 nM | IC50 (HCT-116): 3600 nM | IC50 (MDA-MB-231): 1600 nM

Now from value to compound, other results behind:

IC50 (SK-OV-3 [2]): 200 nM | IC50 (HCT-116): 350 nM | IC50 (MDA-MB-231): 230 nM
Compound: O=C(CCc1cccc2c1B(O)OC2)Nc1ccccc1
selectivity ratio [1]: 150 | IC50 (WI-38): 30000 nM

IC50 (SK-OV-3 [2]): 250 nM | IC50 (HCT-116): 890 nM | IC50 (MDA-MB-231): 220 nM
Compound: O=C(CCc1cccc2c1B(O)OC2)Nc1cccc(-c2ccccc2)c1
IC50 (WI-38): 12000 nM

IC50 (SK-OV-3 [2]): 300 nM | IC50 (HCT-116): 350 nM | IC50 (MDA-MB-231): 250 nM
Compound: O=C(CCc1cccc2c1B(O)OC2)Nc1cccc(-c2cccc(Cl)c2)c1
IC50 (WI-38): 58000 nM
